# Test results reported in patent publication US9624211B2, “Anti-cancer compounds” (Board of Regents, The University of Texas System, priority 2013, dated 2017).
# Entries after “also recorded” stand apart in the source; their conditions may differ.
# Assays:
# Skp2 SCF E3 ligase = biological target: T1, Skp2 SCF E3 ligase (Homo sapiens, UniProt Q13309); experiment: In vivo p27 ubiquitination assay in 293T cells; assay type: cell-based; conditions: WT Skp2
# T1 construct: expressed in transfected cells; host or cells: 293T
# T1 sequence (Q13309 whole entry): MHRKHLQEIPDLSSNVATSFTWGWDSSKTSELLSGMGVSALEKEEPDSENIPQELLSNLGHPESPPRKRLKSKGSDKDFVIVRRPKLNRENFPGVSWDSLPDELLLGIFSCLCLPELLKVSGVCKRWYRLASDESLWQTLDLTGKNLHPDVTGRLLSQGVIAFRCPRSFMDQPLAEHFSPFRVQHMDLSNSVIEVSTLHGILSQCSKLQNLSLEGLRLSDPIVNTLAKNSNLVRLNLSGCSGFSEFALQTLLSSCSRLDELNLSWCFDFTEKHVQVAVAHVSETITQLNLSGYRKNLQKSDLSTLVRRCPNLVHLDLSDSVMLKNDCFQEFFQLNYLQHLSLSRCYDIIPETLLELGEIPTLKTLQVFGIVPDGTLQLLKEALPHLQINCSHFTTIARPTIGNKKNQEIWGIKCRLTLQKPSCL
# Experimental: (§1) In vivo and in vitro ubiquitination assays were performed as described with modification (Lin et al., 2009; Yang et al., 2009). For in vitro ubiquitination assay, recombinant GST-Akt proteins were expressed, purified and eluted from the bacterial lysates of BL21 competent cells. Flag-Skp2 SCF complex were expressed in 293T cells, immunoprecipitated by anti-Flag antibody, and eluted from Protein A/G beads using Flag peptides according to manufacturers' standard procedures. Purified GST-Akt and Flag-SCF proteins were incubated for 3 h at 37° C. in the absence and presence of Skp2 inhibitor. After incubation, protein mixtures were diluted in E1A Buffer and the supernatant fluid was precleared with Protein A/G beads for 1 h, and immunoprecipitated overnight with anti-Flag antibody, after which Protein A/G beads were added for an additional 1 h. Beads were washed 4 times with E1A Buffer. Proteins were eluted in SDS-sample buffer and subjected to immunoblotting analysis. For in vivo ubiquitination assay, 293T cells were transfected with the indicated plasmids and cultured in the absence or presence of Skp2 inhibitor for 48 h. 6 h before harvest, cells were cultured in the presence of MG132. After cell harvest, cells were lysed by the denatured buffer (6M guanidine-HCl, 0.1M Na2HPO4/NaH2PO4, 10 mM imidazole). […]
# [1] = tested on: Skp2 Trp97Ala and Asp98Ala mutants; experiment: In vivo p27 ubiquitination assay, Skp2 Trp97Ala and Asp98Ala mutants; assay type: cell-based
# Experimental: as §1
# WT Skp2 = biological target: T2, WT Skp2 (Homo sapiens, UniProt Q13309); experiment: In vitro binding of compound to GST-Skp2 by LC-MS/MS; conditions: preexisting Skp2-Skp1 complex
# T2 construct: made in house
# T2 sequence (Q13309 whole entry): as above
# Experimental: (§2) To corroborate this notion, the in vitro binding assay was performed to compare the binding affinity of compound #25 to WT Skp2 and Skp2 mutants (Trp97Ala and Asp98Ala) using LC-MS/MS analysis. Of note, since the nature of recombinant Skp2 protein was unstable in the absence of Skp1 (Li et al., 2005), the GST-Skp2 WT, GST-Skp2 Trp97Ala and GST-Skp2Asp98Ala mutants subjected to LC-MS/MS analysis were co-expressed, purified and preformed complex with Skp1 (FIG. 10A).
# [2] = tested on: Skp2 Trp97Ala and Asp98Ala mutants; experiment: In vitro binding of compound to GST-Skp2 mutants by LC-MS/MS; conditions: preexisting Skp2-Skp1 complex
# Experimental: as §2
# FBW7 = biological target: T3, FBW7 (Homo sapiens, UniProt Q969H0); experiment: In vivo ubiquitination assay, FBW7 substrates; assay type: cell-based; conditions: in the presence of proteasome inhibitor
# T3 construct: expressed in transfected cells; host or cells: 293T
# T3 sequence (Q969H0 whole entry, species assumed): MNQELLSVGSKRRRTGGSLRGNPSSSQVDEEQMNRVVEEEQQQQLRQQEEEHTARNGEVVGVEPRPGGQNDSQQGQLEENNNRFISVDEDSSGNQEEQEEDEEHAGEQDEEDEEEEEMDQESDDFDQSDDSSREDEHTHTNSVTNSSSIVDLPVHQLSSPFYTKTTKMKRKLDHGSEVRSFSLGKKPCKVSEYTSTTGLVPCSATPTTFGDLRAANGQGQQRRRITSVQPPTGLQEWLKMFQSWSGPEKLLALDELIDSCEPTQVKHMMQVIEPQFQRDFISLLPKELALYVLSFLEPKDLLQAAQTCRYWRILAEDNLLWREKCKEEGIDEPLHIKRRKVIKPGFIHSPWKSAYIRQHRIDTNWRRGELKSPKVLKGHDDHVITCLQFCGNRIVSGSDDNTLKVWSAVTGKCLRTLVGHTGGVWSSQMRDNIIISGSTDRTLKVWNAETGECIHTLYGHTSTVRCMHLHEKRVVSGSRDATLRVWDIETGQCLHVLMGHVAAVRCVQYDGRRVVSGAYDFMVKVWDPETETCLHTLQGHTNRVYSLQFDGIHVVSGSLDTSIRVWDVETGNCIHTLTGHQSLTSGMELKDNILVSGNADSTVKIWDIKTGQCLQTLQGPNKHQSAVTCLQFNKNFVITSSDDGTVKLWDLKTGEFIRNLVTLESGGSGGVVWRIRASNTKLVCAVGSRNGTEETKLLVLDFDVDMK
# Experimental: as §1
# PC-3 cells = experiment: Cell survival assay, PC-3; assay type: cell-based, human
# Experimental: (§3) For Skp2 inhibitor administration, 5-10×10^3 of cells with were seeded in 12 wells in triplicate, 24 h later, treated with compound #25 (refreshed every two days). Four days later, cells were harvested, stained with trypan blue, and viable cells were counted directly under the microscope using hemocytometer. For doxorubicin treatment, 8×10^3 of PC3 cells with were seeded in 12 wells in triplicate, 24 h later, treated with various dose of compound #25 in the presence or absence of 10 nM doxorubicin or 25 ng/ml cyclophosphamide for four and three days, respectively (refreshed every two days). After treatment, cells were harvested, stained with trypan blue, and viable cells were counted directly under the microscope using hemocytometer. Cellular senescence was determined by assessing SA-b-gal activity using senescence detection kit according to manufacturers' standard procedures (Calbiochem).
# [3] = tested on: normal prostate epithelial PNT1A cells; experiment: Cell survival assay, PNT1A; assay type: cell-based
# Experimental: as §3
# [4] = tested on: tumorigenic lung cancer cells; experiment: Cell survival assay, lung cancer cells and normal fibroblasts; assay type: cell-based
# Experimental: as §3
# U2OS (osteocarcinoma) = experiment: Cell survival assay, U2OS; assay type: cell-based, human
# Experimental: as §3
# prostate cancer cells [5] = experiment: Cell apoptosis assay (Annexin-V, flow cytometry); assay type: cell-based
# Experimental: Prostate cancer cells were treated with vehicle (DMSO) or Skp2 inhibitor for 3 days, and collected and labeled with Annexin-V-FITC, followed by flow cytometry analysis. The Annexin-V+ and […] cells indicates apoptotic cell population (Q4).
# prostate CSCs = experiment: ALDH+ cancer stem cell population by FACS; assay type: cell-based
# Experimental: FIGS. 6A-G. Skp2 inactivation diminishes cancer stem cell properties and heightens cancer cell sensitivity to chemotherapy. (FIG. 6A) Populations of ALDH^+ cells were determined by FACS analysis in PC3 cells treated with vehicle or compound #25. (FIG. 6B) Populations of ALDH^+ cells were determined by FACS analysis in PC3 cells with control or Skp2 knockdown. (FIG. 6C) Populations of ALDH^+ cells were determined by FACS analysis in PC3 cells with control or Skp2 knockdown treated with vehicle or compound #25. (FIG. 6D) Populations of ALDH^+ cells were determined by FACS analysis in PC3 cells with DMSO or LY294002. (FIG. 6E) Populations of ALDH^+ cells were determined by FACS analysis in LNCaP cells treated with DMSO, LY294002 or compound #25. (FIGS. 6F-G) Prostate sphere-formation assay in PC3 (FIG. 6F) and LNCaP (FIG. 6G) cells treated with DMSO, LY294002 or compound #25. Results are presented as mean values±S.D. ** indicates p<0.01.
# prostate cancer cells [6] = experiment: Cell survival assay in combination with Dox or CPA; assay type: cell-based; conditions: combination with doxorubicin or cyclophosphamide
# Experimental: as §3
# PC3 xenograft tumors = experiment: PC3 tumor xenograft in nude mice; assay type: in vivo
# Experimental: Nude mice bearing PC3 or A549 xenograft tumors (around 100 mm^3) were administrated with vehicle or 80 mg/kg compound #25 on a daily basis. Tumor size was measured weekly with a caliper, and tumor volume was determined with the standard formula: L×W2×0.52, where L is the longest diameter and W the shortest diameter.
smiles,measurement,setting,value
"CCc1cc2c(=O)c(-c3nc4ccccc4s3)coc2c(CN2CCCCC2)c1O [compound #25, 3-(1,3-benzothiazol-2-yl)-6-ethyl-7-hydroxy-8-(1-piperidinylmethyl)-4H-chromen-4-one]",Skp2-mediated p27 ubiquitination,Skp2 SCF E3 ligase,inhibited Skp2-mediated p27 ubiquitination in a dose-dependent manner; also recorded: abrogated E3 ligase activity
same,E3 ligase activity of Skp2 Trp97Ala and Asp98Ala mutants,[1],failed to inhibit
same,binding to WT Skp2,WT Skp2,readily bound
same,binding to Trp97Ala and Asp98Ala mutants,[2],failed to interact
same,"FBW7-mediated ubiquitination (c-Jun, MCL-1)",FBW7,no appreciable effect
same,cell viability,PC-3 cells; PC-3,potent effects on cell viability
same,viability upon Skp2 silencing,PC-3 cells; Skp2-knockdown prostate cancer cells,inhibitory effect is compromised
same,viability of control-knockdown cells,PC-3 cells; control-knockdown prostate cancer cells,potent inhibitory effect
same,cell viability with ectopic Skp2 Trp97Ala or Asp98Ala,PC-3 cells; ectopic expression of Skp2 mutants,attenuated the inhibitory effect
same,cell viability,[3],only slightly affected
same,"cytotoxicity, lung cancer cells over lung fibroblast",[4],favorably triggered cytotoxicity in tumorigenic lung cancer cells over non-tumorigenic lung fibroblast
same,cell viability,U2OS (osteocarcinoma),potent suppressive effect on viability
same,cell apoptosis,prostate cancer cells [5],elicited cell apoptosis
same,population of prostate CSCs,prostate CSCs,reduce the population of prostate CSCs in a dose dependent manner
same,population of prostate CSCs upon Skp2 silencing,prostate CSCs; Skp2 silencing,failed to do so
same,sensitization to Dox and CPA,prostate cancer cells [6],increased the efficacy of Dox and CPA
same,prostate tumor growth in vivo,PC3 xenograft tumors; IP injection,potent effect
same,"p27, p21, apoptosis, Akt activation and Glut1 in prostate tumor tissues",PC3 xenograft tumors; histological analysis,"induced expression of p27 and p21, apoptosis, and suppressed Akt activation and Glut1 expression"
